row,melting point,Structure (SMILES)
1,226 to 227 °C,"Cc1nn(-c2ccccn2)c2nc3cc([N+](=O)[O-])ccc3c(Cl)c12 [Example 2-57, 4-Chloro-3-methyl-7-nitro-1-(2-pyridinyl)-1H-pyrazolo[3,4-b]quinoline]"
2,> 300 °C,"Cc1nn(-c2ccccn2)c2[nH]c3cc([N+](=O)[O-])ccc3c(=O)c12 [Example 2-58, 3-Methyl-7-nitro-1-(2-pyridinyl)-1,9-dihydro-4H-pyrazolo[3,4-b]quinolin-4-one]"
3,284 to 286 °C,"Cc1nn(-c2ccccn2)c2[nH]c3cc(N)ccc3c(=O)c12 [Example 2-59, 7-Amino-3-methyl-1-(2-pyridinyl)-1,9-dihydro-4H-pyrazolo[3,4-b]quinolin-4-one]"
4,303 to 306 °C,"Cc1nn(-c2ccccn2)c2[nH]c3cccc(C(=O)O)c3c(=O)c12 [Example 2-62, 3-Methyl-4-oxo-1-(2-pyridinyl)-4,9-dihydro-1H-pyrazolo[3,4-b]quinoline-5-carboxylic acid]"
5,199 to 200 °C,"COC(=O)c1ccc2nc3c(c(C)nn3-c3ccccn3)c(Cl)c2c1 [Example 2-63, Methyl 4-chloro-3-methyl-1-(2-pyridinyl)-1H-pyrazolo[3,4-b]quinoline-6-carboxylate]"
6,265 to 266 °C,"COC(=O)c1ccc2[nH]c3c(c(C)nn3-c3ccccn3)c(=O)c2c1 [Example 2-64, Methyl 3-methyl-4-oxo-1-(2-pyridinyl)-4,9-dihydro-1H-pyrazolo[3,4-b]quinoline-6-carboxylate]"
7,> 300 °C,"Cc1nn(-c2ccccn2)c2[nH]c3ccc(C(=O)O)cc3c(=O)c12 [Example 2-65, 3-Methyl-4-oxo-1-(2-pyridinyl)-4,9-dihydro-1H-pyrazolo[3,4-b]quinoline-6-carboxylic acid]"
8,239 to 240 °C,"COC(=O)c1ccc2c(Cl)c3c(C)nn(-c4ccccn4)c3nc2c1 [Example 2-66, Methyl 4-chloro-3-methyl-1-(2-pyridinyl)-1H-pyrazolo[3,4-b]quinoline-7-carboxylate]"
9,251 to 252 °C,"COC(=O)c1ccc2c(=O)c3c(C)nn(-c4ccccn4)c3[nH]c2c1 [Example 2-67, Methyl 3-methyl-4-oxo-1-(2-pyridinyl)-4,9-dihydro-1H-pyrazolo[3,4-b]quinoline-7-carboxylate]"
10,> 300 °C,"Cc1nn(-c2ccccn2)c2[nH]c3cc(C(=O)O)ccc3c(=O)c12 [Example 2-68, 3-Methyl-4-oxo-1-(2-pyridinyl)-4,9-dihydro-1H-pyrazolo[3,4-b]quinoline-7-carboxylic acid]"
11,212 to 213 °C,"Cc1nn(-c2ccccn2)c2[nH]c3cccc(Cl)c3c(=O)c12 [Example 2-69, 5-Chloro-3-methyl-1-(2-pyridinyl)-1,9-dihydro-4H-pyrazolo[3,4-b]quinolin-4-one]"
12,233 to 235 °C,"Cc1nn(-c2ccccn2)c2nc3ccc(Cl)cc3c(Cl)c12 [Example 2-70, 4,6-Dichloro-3-methyl-1-(2-pyridinyl)-1H-pyrazolo[3,4-b]quinoline]"
13,289 to 292 °C,"Cc1nn(-c2ccccn2)c2nc3ccc(Cl)cc3c(N)c12 [Example 2-71, 6-Chloro-3-methyl-1-(2-pyridinyl)-1H-pyrazolo[3,4-b]quinolin-4-ylamine]"
14,254 to 255 °C,"Cc1nn(-c2ccccn2)c2[nH]c3ccc(Cl)cc3c(=O)c12 [Example 2-72, 6-Chloro-3-methyl-1-(2-pyridinyl)-1,9-dihydro-4H-pyrazolo[3,4-b]quinolin-4-one]"
15,203 to 204 °C,"Cc1nn(-c2ccccn2)c2nc3cc(Cl)ccc3c(Cl)c12 [Example 2-73, 4,7-Dichloro-3-methyl-1-(2-pyridinyl)-1H-pyrazolo[3,4-b]quinoline]"
16,274 to 275 °C,"Cc1nn(-c2ccccn2)c2[nH]c3cc(Cl)ccc3c(=O)c12 [Example 2-74, 7-Chloro-3-methyl-1-(2-pyridinyl)-1,9-dihydro-4H-pyrazolo[3,4-b]quinolin-4-one]"
17,213 to 214 °C,"Cc1nn(-c2ccccn2)c2nc3cc(Cl)c(Cl)cc3c(Cl)c12 [Example 2-75, 4,6,7-Trichloro-3-methyl-1-(2-pyridinyl)-1H-pyrazolo[3,4-b]quinoline]"
18,303 to 304 °C,"Cc1nn(-c2ccccn2)c2[nH]c3cc(Cl)c(Cl)cc3c(=O)c12 [Example 2-76, 6,7-Dichloro-3-methyl-1-(2-pyridinyl)-1,9-dihydro-4H-pyrazolo[3,4-b]quinolin-4-one]"
19,288 to 289 °C,"Cc1nn(-c2ccccn2)c2[nH]c3c(Cl)cc(Cl)cc3c(=O)c12 [Example 2-77, 6,8-Dichloro-3-methyl-1-(2-pyridinyl)-1,9-dihydro-4H-pyrazolo[3,4-b]quinolin-4-one]"
20,160 to 161 °C,"Cc1nn(-c2ccccn2)c2nc3cccc(F)c3c(Cl)c12 [Example 2-78, 4-Chloro-5-fluoro-3-methyl-1-(2-pyridinyl)-1H-pyrazolo[3,4-b]quinoline]"
21,185 to 187 °C,"Cc1nn(-c2ccccn2)c2nc3ccc(F)cc3c(Cl)c12 [Example 2-80, 4-Chloro-6-fluoro-3-methyl-1-(2-pyridinyl)-1H-pyrazolo[3,4-b]quinoline]"
22,191 °C,"Cc1nn(-c2ccccn2)c2nc3c(F)cccc3c(Cl)c12 [Example 2-84, 4-Chloro-8-fluoro-3-methyl-1-(2-pyridinyl)-1H-pyrazolo[3,4-b]quinoline]"
23,241 °C,"Cc1nn(-c2ccccn2)c2[nH]c3c(F)cccc3c(=O)c12 [Example 2-85, 8-Fluoro-3-methyl-1-(2-pyridinyl)-1,9-dihydro-4H-pyrazolo[3,4-b]quinolin-4-one]"
24,234 to 235 °C,"Cc1nn(-c2ccccn2)c2nc3ccc(Br)cc3c(Cl)c12 [Example 2-86, 6-Bromo-4-chloro-3-methyl-1-(2-pyridinyl)-1H-pyrazolo[3,4-b]quinoline]"
25,240 to 242 °C,"Cc1nn(-c2ccccn2)c2[nH]c3ccc(Br)cc3c(=O)c12 [Example 2-87, 6-Bromo-3-methyl-1-(2-pyridinyl)-1,9-dihydro-4H-pyrazolo[3,4-b]quinolin-4-one]"
26,240 to 242 °C,"Cc1nn(-c2ccccn2)c2nc3ccc(F)c(F)c3c(Cl)c12 [Example 2-88, 4-Chloro-5,6-difluoro-3-methyl-1-(2-pyridinyl)-1H-pyrazolo[3,4-b]quinoline]"
27,300 to 303 °C,"Cc1nn(-c2ccccn2)c2[nH]c3ccc(F)c(F)c3c(=O)c12 [Example 2-89, 5,6-Difluoro-3-methyl-1-(2-pyridinyl)-1,9-dihydro-4H-pyrazolo[3,4-b]quinolin-4-one]"
28,175 to 176 °C,"Cc1nn(-c2ccccn2)c2nc3cc(F)c(F)cc3c(Cl)c12 [Example 2-90, 4-Chloro-6,7-difluoro-3-methyl-1-(2-pyridinyl)-1H-pyrazolo[3,4-b]quinoline]"
29,198 to 200 °C,"CCCn1c2cc(F)c(F)cc2c(=O)c2c(C)nn(-c3ccccn3)c21 [Example 2-93, 6,7-Difluoro-3-methyl-9-propyl-1-(2-pyridinyl)-1,9-dihydro-4H-pyrazolo[3,4-b]quinolin-4-one]"
30,162 to 163 °C,"CCCOc1c2cc(F)c(F)cc2nc2c1c(C)nn2-c1ccccn1 [Example 2-94, 6,7-Difluoro-3-methyl-4-propoxy-1-(2-pyridinyl)-1H-pyrazolo[3,4-b]quinoline]"

# Reference: US6949648B2, “Condensed pyrazole derivatives, process for producing the same and use thereof” (Takeda Pharmaceutical Company Limited, priority 2000, dated 2005)
